Data taken from patent US20240217951A1, “PCSK9 INHIBITORS AND METHODS OF USE THEREOF” (AstraZeneca AB, priority 2022, published 2024).

Key:
human PCSK9 = target: T1, human PCSK9 (Homo sapiens, UniProt Q8NBP7); assay: Assay 2 - Biophysical human PCSK9 assay (SPR, Biacore); assay type: binding; settings: geometric mean; SPR at 30° C; read-out: Assay 2 (PCSK9 BIAcore DBA CR) GMean Kd
T1 construct: biotinylated human PCSK9 (31-692)-Avi-His6; His6 (C)

[1] = target: T2, potassium ion channel hERG (human Ether-á-go-go-Related Gene) (Homo sapiens, UniProt Q12809); assay: Assay 5 - hERG assay (SyncroPatch 384PE patch clamp, CHO cells); assay type: cell-based; settings: geometric mean; CHO cells over-expressing hERG; read-out: Assay 5 (hERG Hu CHO IF EPh CR-Syncro) GMean IC50
T2 construct: expressed in transfected cells; host or cells: Chinese hamster ovary K1 (CHO)
Method in brief: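 Automated high-throughput patch clamp on CHO-K1 cells overexpressing hERG at room temperature, KF/KCl internal with escin, NMDG-containing external at pH 7.4. Six-point cumulative compound addition, 0.33% DMSO final; wells kept only with seal >30 MΩ, Z′ >0.4 and current >0.2 nA.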

T2 sequence (Q12809 whole entry): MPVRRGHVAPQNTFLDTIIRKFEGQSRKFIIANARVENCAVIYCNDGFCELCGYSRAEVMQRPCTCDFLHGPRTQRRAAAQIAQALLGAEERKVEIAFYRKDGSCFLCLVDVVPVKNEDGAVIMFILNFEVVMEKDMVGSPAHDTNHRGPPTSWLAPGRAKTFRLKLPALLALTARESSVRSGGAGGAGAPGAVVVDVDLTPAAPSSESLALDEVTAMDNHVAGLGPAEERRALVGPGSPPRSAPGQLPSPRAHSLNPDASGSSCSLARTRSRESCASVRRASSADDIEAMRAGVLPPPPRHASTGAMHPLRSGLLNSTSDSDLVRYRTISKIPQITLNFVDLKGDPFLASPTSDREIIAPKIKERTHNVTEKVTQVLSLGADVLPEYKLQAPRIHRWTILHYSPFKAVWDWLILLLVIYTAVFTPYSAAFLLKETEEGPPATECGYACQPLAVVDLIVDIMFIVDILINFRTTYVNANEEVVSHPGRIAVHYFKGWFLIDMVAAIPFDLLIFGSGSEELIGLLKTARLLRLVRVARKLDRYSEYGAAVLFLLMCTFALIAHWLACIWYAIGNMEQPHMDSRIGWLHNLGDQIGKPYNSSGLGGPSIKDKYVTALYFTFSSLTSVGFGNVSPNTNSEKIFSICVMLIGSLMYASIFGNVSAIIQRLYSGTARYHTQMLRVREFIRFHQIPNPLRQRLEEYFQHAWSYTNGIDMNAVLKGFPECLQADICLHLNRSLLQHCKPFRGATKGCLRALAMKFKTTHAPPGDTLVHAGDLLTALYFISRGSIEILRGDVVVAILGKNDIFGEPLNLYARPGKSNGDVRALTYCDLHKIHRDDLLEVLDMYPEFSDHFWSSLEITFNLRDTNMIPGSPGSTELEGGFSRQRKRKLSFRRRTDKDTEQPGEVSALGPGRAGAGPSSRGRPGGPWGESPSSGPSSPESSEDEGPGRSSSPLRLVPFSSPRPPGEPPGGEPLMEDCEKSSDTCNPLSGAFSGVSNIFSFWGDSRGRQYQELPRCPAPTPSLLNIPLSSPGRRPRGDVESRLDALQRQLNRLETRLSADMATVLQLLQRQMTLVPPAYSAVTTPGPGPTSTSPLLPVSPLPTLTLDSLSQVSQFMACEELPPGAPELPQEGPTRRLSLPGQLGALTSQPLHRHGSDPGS
T1 sequence (Q8NBP7 31-692): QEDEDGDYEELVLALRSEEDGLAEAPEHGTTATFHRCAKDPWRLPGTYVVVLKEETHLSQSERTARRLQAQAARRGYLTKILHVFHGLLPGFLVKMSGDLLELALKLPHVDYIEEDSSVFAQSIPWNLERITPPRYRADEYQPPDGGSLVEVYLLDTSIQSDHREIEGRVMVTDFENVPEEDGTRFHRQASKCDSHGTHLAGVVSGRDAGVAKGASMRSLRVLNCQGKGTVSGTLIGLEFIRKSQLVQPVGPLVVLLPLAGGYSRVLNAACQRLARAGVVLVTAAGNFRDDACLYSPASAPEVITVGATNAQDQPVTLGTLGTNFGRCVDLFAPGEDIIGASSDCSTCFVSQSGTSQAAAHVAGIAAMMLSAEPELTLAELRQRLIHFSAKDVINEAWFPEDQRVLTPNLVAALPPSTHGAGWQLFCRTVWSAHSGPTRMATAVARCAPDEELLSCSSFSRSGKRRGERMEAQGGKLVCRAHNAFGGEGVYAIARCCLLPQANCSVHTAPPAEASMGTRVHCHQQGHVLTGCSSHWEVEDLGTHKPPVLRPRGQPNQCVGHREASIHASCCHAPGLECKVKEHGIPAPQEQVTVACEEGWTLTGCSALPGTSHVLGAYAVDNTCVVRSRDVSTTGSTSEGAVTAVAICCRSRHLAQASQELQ

SMILES	Kd (human PCSK9)	IC50 [1]
Cc1cccn(-c2ccc(N[C@H]3CC[C@H](Nc4cnc(Cl)cn4)C3)nc2)c1=O [Example 24, 6′-(((1S,3S)-3-((5-Chloropyrazin-2-yl)amino)cyclopentyl)amino)-3-methyl-2H-[1,3′-bipyridin]-2-one]	0.004 µM	20.5 µM
Cn1c(=O)n(-c2ccc(N[C@H]3CC[C@H](Nc4cnc(Cl)cn4)C3)nc2)c2ccccc21 [Example 27, 1-(6-(((1S,3S)-3-((5-Chloropyrazin-2-yl)amino)cyclopentyl)amino)pyridin-3-yl)-3-methyl-1,3-dihydro-2H-benzo[d]imidazol-2-one]	0.0031 µM	6.35 µM
O=c1ccc(-c2ccc(F)cc2)cn1-c1ccc(N[C@H]2CC[C@H](Nc3cnc(Cl)cn3)C2)nc1 [Example 32, 6′-(((1S,3S)-3-((5-Chloropyrazin-2-yl)amino)cyclopentyl)amino)-5-(4-fluorophenyl)-2H-[1,3′-bipyridin]-2-one]	0.02 µM	3.5 µM
O=C(O)c1ccc(=O)n(-c2ccc(N[C@H]3CC[C@H](Nc4cnc(Cl)cn4)C3)nc2)c1 [Example 33, 6′-(((1S,3S)-3-((5-Chloropyrazin-2-yl)amino)cyclopentyl)amino)-2-oxo-2H-[1,3′-bipyridine]-5-carboxylic acid]	0.013 µM	> 40 µM
O=c1ccc2ccccc2n1-c1ccc(N[C@H]2CC[C@H](Nc3cnc(Cl)cn3)C2)nc1 [Example 35, 1-(6-(((1S,3S)-3-((5-Chloropyrazin-2-yl)amino)cyclopentyl)amino)pyridin-3-yl)quinolin-2 (1H)-one]	0.003 µM	4.7 µM
COc1cccn(-c2ccc(N[C@H]3CC[C@H](Nc4cnc(C)cn4)C3)nc2)c1=O [Example 36, 3-Methoxy-6′-(((1S,3S)-3-((5-methylpyrazin-2-yl)amino)cyclopentyl)amino)-2H-[1,3′-bipyridin]-2-one]	0.0053 µM	> 40 µM
Cc1cnc(N[C@H]2CC[C@H](Nc3ccc(-n4c(=O)ccc5cccnc54)cn3)C2)cn1 [Example 37, 1-(6-(((1S,3S)-3-((5-Methylpyrazin-2-yl)amino)cyclopentyl)amino)pyridin-3-yl)-1,8-naphthyridin-2(1 H)-one]	0.0055 µM	> 40 µM
Cc1cnc(N[C@H]2CC[C@H](Nc3ccc(-n4c(=O)n(C)c5cccnc54)cn3)C2)cn1 [Example 42, 1-Methyl-3-(6-(((1S,3S)-3-((5-methylpyrazin-2-yl)amino)cyclopentyl)amino)pyridin-3-yl)-1,3-dihydro-2H-imidazo[4,5-b]pyridin-2-one]	0.005 µM	> 40 µM
Cc1cnc(N[C@H]2CC[C@H](Nc3ccc(-n4cccc(C)c4=O)cn3)C2)cn1 [Example 44, 3-Methyl-6′-(((1S,3S)-3-((5-methylpyrazin-2-yl)amino)cyclopentyl)amino)-2H-[1,3′-bipyridin]-2-one]	0.0045 µM	> 40 µM
Cc1cnc(N[C@H]2CC[C@H](Nc3ccc(-n4c(=O)n(C)c5ccccc54)cn3)C2)cn1 [Example 45, 1-Methyl-3-(6-(((1S,3S)-3-((5-methylpyrazin-2-yl)amino)cyclopentyl)amino)pyridin-3-yl)-1,3-dihydro-2H-benzo[d]imidazol-2-one]	0.0015 µM	23.1 µM
Cc1cnc(N[C@H]2CC[C@H](Nc3ccc(-n4c(=O)[nH]c5ccccc54)cn3)C2)cn1 [Example 46, 1-(6-(((1S,3S)-3-((5-Methylpyrazin-2-yl)amino)cyclopentyl)amino)pyridin-3-yl)-1,3-dihydro-2H-benzo[d]imidazol-2-one]	0.0047 µM	33 µM
Cc1cnc(N[C@H]2CC[C@H](Nc3ccc(-n4cccc(Cl)c4=O)cn3)C2)cn1 [Example 47, 3-Chloro-6′-(((1S,3S)-3-((5-methylpyrazin-2-yl)amino)cyclopentyl)amino)-2H-[1,3′-bipyridin]-2-one]	0.0019 µM	> 40 µM
Cn1c(=O)n(-c2ccc(N[C@H]3CC[C@H](Nc4cnc(OC(F)F)cn4)C3)nc2)c2ccccc21 [Example 82, 1-(6-(((1S,3S)-3-((5-(Difluoromethoxy)pyrazin-2-yl)amino)cyclopentyl)amino)pyridin-3-yl)-3-methyl-1,3-dihydro-2H-benzo[d]imidazol-2-one]	0.0041 µM	5.5 µM
COc1cccn(-c2ccc(N[C@H]3CC[C@H](Nc4cnc(OC(F)F)cn4)C3)nc2)c1=O [Example 94, 6′-(((1S,3S)-3-((5-(Difluoromethoxy)pyrazin-2-yl)amino)cyclopentyl)amino)-3-methoxy-2H-[1,3′-bipyridin]-2-one]	0.012 µM	17.5 µM
Cc1cnc(N[C@H]2CC[C@H](Nc3ccc(-n4cccc(C#N)c4=O)cn3)C2)cn1 [Example 103, 6′-(((1S,3S)-3-((5-Methylpyrazin-2-yl)amino)cyclopentyl)amino)-2-oxo-2H-[1,3′-bipyridine]-3-carbonitrile]	0.0047 µM	> 40.1 µM
COc1cccn(-c2ccc(N[C@H]3CC[C@H](Nc4cnc(C5CC5)cn4)C3)nc2)c1=O [Example 106, 6′-(((1S,3S)-3-((5-Cyclopropylpyrazin-2-yl)amino)cyclopentyl)amino)-3-methoxy-2H-[1,3′-bipyridin]-2-one]	0.003 µM	> 40 µM
COc1ccnn(-c2ccc(N[C@H]3CC[C@H](Nc4cnc(C)cn4)C3)nc2)c1=O [Example 226, 4-Methoxy-2-(6-(((1S,3S)-3-((5-methylpyrazin-2-yl)amino)cyclopentyl)amino)pyridin-3-yl)pyridazin-3 (2H)-one]	0.0056 µM	> 40.1 µM
